The record followed here is US8394742B2, “Methods, compounds and compositions with genotype selective anticancer activity” (The Translation Genomics Research Institute, priority 2005, dated 2013).

As usually defined, the IC50 is the concentration that inhibits the measured activity by half. A low value points to greater potency in that assay.

One assay has as its system BxPC-3 cells. Kind of assay: Annexin V-FITC apoptosis assay. The format is cell-based, human. As to conditions: BxPC-3, 25 μM, 24 hours; untreated control 4.6%. How it is done:
Cells were grown and treated with UA62001 as described in the cell cycle distribution analysis section above. Twenty-four hours after the treatment with the compound, cell media containing detached floating cells were transferred to 15 ml conical tubes; while the attached cells were trypsinized and collected in the same tube. Cells were then pelleted by centrifugation at 1500 rpm for 5 min, washed with PBS and then resuspended in 1×binding buffer at a concentration of 1×10^6 cells/ml. One hundred microliters (1×10^5 cells) were incubated with 5 μl of Annexin V-FITC (BD Pharmingen) and propidium iodide for 15 min in the dark at room temperature. After adding 400 μl of the 1× binding buffer, the cells were analyzed by flow cytometry (BD Immunocytometry systems). Data were acquired and analyzed using CellQuest software.

Assay [1] relates to HPDE6-siDPC4 (HPDE6 cells with DPC4 expression stably suppressed by siRNA). In words: MTS cell proliferation assay, HPDE6-siDPC4 cells. Type of assay: cell-based. As to conditions: Homo sapiens. How it is done: At the initial screening, compounds are tested in the MTS assay (or other cell proliferation assays such as SRB and Alamar Blue) against the cell line in which the specific gene is either deleted or suppressed by siRNA at a single dose of 10 μM (Toxicity Screening).
Compounds that show more than 50% cell growth inhibition at this concentration are selected to test against both isogenic cell lines (loss-of-function vs. wild type) at three different concentrations (10, 2 and 0.4 μM, Synthetic lethal Screening). Compounds that show a selectivity index ≧5 are selected for next round of screening—Selectivity Screening.
In the Selectivity Screening, compounds are tested against cancer cell lines with a specific loss-of-function mutation and normal cells (HPDE6 and FORF-TERT). Depending on their approximate potency assessed in the Synthetic lethal Screening, compounds are tested in a range of concentrations (8 concentrations per agent) in Selectivity Screening. Compounds that have nM IC50 values in loss-of-function cells and selectivity index values >10 are selected for phenotypic consequence tests and in vivo evaluations in animal models.
The inhibition of cell proliferation by library compounds was evaluated using the CellTiter 96 Non-Radioactive Cell Proliferation Assay following the protocol recommended by the manufacturer (Promega, Madison Wis.). […]
For orientation: Formazan colour is commonly taken as a measure of viable cells.

Turning to `O=C1c2ccccc2C(=O)c2c1ccc1c(=O)n(-c3ccccc3)[nH]c21` [UA62001, 2-phenyl-1H-Naphth [2,3-g]indazole-3,6,11(2H)-trione], the “percentage of cells in the M1 region (Annexin V staining)” value in the assay on BxPC-3 cells was 8.2%. The same compound had a half-inhibitory concentration (IC50) in assay [1] of 6 µM.
